Laboratory results reported in patent US11013249B2, “Compositions for controlled release of volatile compounds” (University of Guelph, priority 2016, dated 2021).
Values after ≈ are worked out from the molar mass of the structure shown. Values joined by “and” are separate entries in the source; they are usually repeats but may differ in a detail not shown here. Identical values can stand only once. Like-named read-outs stand apart in the source and are kept apart here.

Key:
[1] = cited from earlier work; for vapor pressure: 25° C.
Yeast = assay: Inhibitory effects of AITC, diacetyl and cinnamaldehyde vapour; assay type: cell-based, yeast isolated from mung bean sprouts; conditions: for Yeast day1, visual colony number / Yeast day2, visual colony number / Yeast day3, visual colony number / effective concentration against yeast: 25° C.; for MIC: read-out: minimum inhibition concentration (MIC); for effective concentration against yeast: vapour in one-liter jar
Procedure: (§1) P. fluorescens was selected as a model spoilage bacteria, while mould and yeast were isolated from spoiled mung bean sprouts with bacteria excluded by cultivating in potato dextrose broth (PDB) (Sigma, Oakville, ON, Canada) at pH 5.6±0.2. Yeast and P. fluorescens stocks were cultivated in PDB and trypticase soy broth (TSB) (Bacto, BD, Sparks, USA), respectively, at 30° C. for 24 h and diluted with sterile saline solution (NaCl, 8.5 g/L water) to a concentration of 10^6 CFU/mL. An aliquot of 50 μL of the prepared yeast or bacteria suspension was spread on potato dextrose agar (PDA) (Difco, BD, Sparks, USA) or trypticase soy agar (TSA) (Bacto, BD, Sparks, USA), respectively, in 5 cm diameter petri dishes (Fisher Scientific, Ottawa, ON, Canada). Mycelium of mould was inoculated as one spot at the center of the PDA dishes. Two freshly inoculated petri dishes of same microorganism, with their lids removed, were placed in a one-liter glass jar. […] The growth of the microorganisms was monitored by the colony formation for 3 days.

P. Fluorescens [2] = assay: as above; assay type: cell-based, Pseudomonas fluorescens P33; conditions: 25° C.; for effective concentration against P. fluorescens: vapour in one-liter jar
Procedure: as §1

[3] = Release of diacetyl and AITC vapours from PEG blends into jar headspace (automatic headspace sampling, GC); assay type: physicochemical; conditions: from 4:1 PEG400:PEG10K
Procedure: PEG400 and PEG10K were blended at 1:4, 2:3, 3:2 and 4:1 (w/w) ratios. All PEG blends (20±1 g) were heated to 90° C. in a 20 mL glass vial for 20 min to ensure the polymers were melted and thoroughly mixed with the aid of a magnetic stir bar. […] The vials were capped, kept in a 75° C. oven and continuously being stirred with the magnetic stir bar for 15 min. The molten mixtures were injected into a mould fabricated from glass (2 cm×1.5 cm×0.1 cm) and allowed to set. One face of the mould was lined with aluminum tape (adhesive side facing away from PEG), which acted as a baking material for the solidified PEG. Upon solidification, diacetyl/AITC impregnated PEG sheeting was formed.
With the aid of a controller (SRI Instruments Inc., Las Vegas, Nev., USA), the headspace air in the glass jar was sampled automatically by means of a vacuum pump and two stream selection valves (Model EMTCA-CE, VICI Valco Instruments Co. Inc., Houston, Texax, USA), and injected into a gas chromatograph equipped with flame ionization detector (GC 6890, Agilent Technologies Inc., Santa Clara, Calif., USA.). Both the detector and oven temperatures were set at 150° C. The flow rates of the carrier gas (N2), compressed air and hydrogen were 30 mL/min, 200 mL/min and 30 mL/min, respectively. Retention time and peak area were analyzed by using chromatographic software (Peak Simple 393-32 bit, SRI Instruments, Torrance, Calif., USA). After each sampling, an equal amount of dry air was injected back into the jar to maintain the interior pressure at one atmosphere.
Diacetyl or AITC release profiles were generated by plotting Mn versus time.
The release profiles of the antimicrobial compounds were fitted in a model which combines first order kinetics and zero order kinetics: C=Ce×(1−e^−kt)+αt (Eq. 3) where C is the compound concentration at time t; Ce is the equilibrium concentration for diffusion; k is the diffusion rate constant; α is the rate of zero order kinetics. Models are fitted to the data before reaching the equilibrium.

Mould = assay: Inhibitory effects of AITC, diacetyl and cinnamaldehyde vapour; assay type: cell-based, mould isolated from mung bean sprouts; conditions: 25° C.; for concentration that inhibited the growth of mould for three days: vapour in one-liter jar
Procedure: as §1

P. Fluorescens [4] = assay: Antimicrobial efficacy of pure CA and PLA-PEO-CA nonwoven; assay type: cell-based, Pseudomonas fluorescens; conditions: 25° C.
Procedure: (§2) The antimicrobial activity of PLA-PEO-CA nonwoven was tested on two spoilage microorganisms, P. fluorescens and P. aphanidermatum. One of each freshly inoculated P. fluorescens and P. aphanidermatum petri dishes, with the lid removed, were placed in a one-liter glass jar. A piece of PLA-PEO-CA nonwoven or a certain amount of liquid CA was placed in the middle of the jar without touching the petri dishes and the lid was closed immediately. The jar was incubated at 25° C. The growth of the microorganisms was monitored every 24 h for 4 d.

P. aphanidermatum = assay: as above; assay type: cell-based, Pythium aphanidermatum; conditions: 25° C.
Procedure: as §2

## O=C(O)C=Cc1ccccc1 [cinnamic acid]
[1]
  vapor pressure: 0.0047 mm Hg

## Cc1ccc(C(C)C)c(O)c1 [thymol, Thymol]
[1]
  vapor pressure: 0.0054 kPa

## C=CCN=C=S [AITC, Allyl isothiocyanate]
Yeast; Amount 0.1 mg in one-liter jar
  Yeast day1, visual colony number: + (less than 15)
  Yeast day2, visual colony number: + (less than 15)
  Yeast day3, visual colony number: + (less than 15)
Yeast
  MIC: 0.5 µg/mL (≈ 5.04 µM)
  effective concentration against yeast: 0.5 mg/L
P. Fluorescens [2]; Amount 0.1 mg in one-liter jar
  P. Fluorescens day1, visual colony number: ++ (15-50)
  P. Fluorescens day2, visual colony number: ++ (15-50)
P. Fluorescens [2]; Amount 0.5 mg in one-liter jar
  P. Fluorescens day1, visual colony number: + (less than 15)
  P. Fluorescens day2, visual colony number: + (less than 15)
P. Fluorescens [2]
  effective concentration against P. fluorescens: 1 mg/L
[3]; 0 μL water, 5° C.
  Ce: 0.0212 mg/L
  k: 0.0149 h⁻¹
  α: 3.39e-06 h⁻¹
[3]; 0 μL water, 25° C.
  Ce: 0.0791 mg/L
  k: 0.016 h⁻¹ and 0.01604 h⁻¹
  α: 1.94e-05 h⁻¹
[3]; 5° C.
  maximum released after 42 h: 0.14 mg
[3]; 10 μL water, 5° C.
  Ce: 0.0245 mg/L
  k: 0.01509 h⁻¹
  α: 3.63e-06 h⁻¹
[3]; 10 μL water, 25° C.
  Ce: 0.1012 mg/L
  k: 0.01169 h⁻¹
  α: 1.76e-05 h⁻¹
[3]; 25° C.
  maximum released after 42 h: 0.47 mg
[3]; 25° C., 10 μL water
  maximum release within 42 h: 0.15 mg
[3]; 25° C., 100 μL water
  maximum release within 42 h: 0.18 mg
[3]; 25° C., 1000 μL water
  maximum release within 42 h: 0.48 mg
[3]; 25° C., dry condition
  maximum release within 42 h: 0.13 mg
[3]; 100 μL water, 5° C.
  Ce: 0.0353 mg/L
  k: 0.01022 h⁻¹
  α: 1.09e-05 h⁻¹
[3]; 100 μL water, 25° C.
  Ce: 0.1523 mg/L
  k: 0.00896 h⁻¹
  α: 1.25e-05 h⁻¹
[3]; 1000 μL water, 5° C.
  Ce: 0.0454 mg/L
  k: 0.00564 h⁻¹
  α: 3.75e-05 h⁻¹
[3]; 1000 μL water, 25° C.
  Ce: 0.1365 mg/L
  k: 0.009 h⁻¹ and 0.00945 h⁻¹
  time of reaching equilibrium of release: around 1300 min
  α: 0.00029 h⁻¹ and 0.000291 h⁻¹
Mould
  concentration that inhibited the growth of mould for three days: 0.1 mg/L
[1]; 5° C.
  Saturated vapor pressure: ~140 Pa
[1]; 20° C.
  vapor pressure (volatility): 0.49 kPa
[1]; 45° C.
  Saturated vapor pressure: ~1500 Pa

## O=CC=Cc1ccccc1 [Cinnamaldehyde]
Yeast; Amount 2 mg in one-liter jar
  Yeast day1, visual colony number: + (less than 15)
  Yeast day2, visual colony number: + (less than 15)
  Yeast day3, visual colony number: ++ (15-50)
Yeast; Amount 5 mg in one-liter jar
  Yeast day1, visual colony number: + (less than 15)
  Yeast day2, visual colony number: + (less than 15)
  Yeast day3, visual colony number: + (less than 15)
Yeast; Amount 10 mg in one-liter jar
  Yeast day1, visual colony number: + (less than 15)
  Yeast day2, visual colony number: + (less than 15)
  Yeast day3, visual colony number: + (less than 15)
Yeast; Amount 20 mg in one-liter jar
  Yeast day1, visual colony number: + (less than 15)
  Yeast day2, visual colony number: + (less than 15)
  Yeast day3, visual colony number: + (less than 15)
Yeast; established on yeast, mould and P. fluorescens from Table 8
  MIC: 30 µg/mL (≈ 227 µM)
Yeast
  effective concentration against yeast: 30 mg/L
P. Fluorescens [4]; 2 mg liquid CA in 1 L jar
  P. Fluorescens Day 1, visual colony number: ++ (15-50)
  P. Fluorescens Day 2, visual colony number: ++++ (more than 150)
  P. Fluorescens Day 3, visual colony number: ++++ (more than 150)
  P. Fluorescens Day 4, visual colony number: ++++ (more than 150)
P. Fluorescens [4]; 5 mg liquid CA in 1 L jar
  P. Fluorescens Day 1, visual colony number: ++ (15-50)
  P. Fluorescens Day 2, visual colony number: ++++ (more than 150)
  P. Fluorescens Day 3, visual colony number: ++++ (more than 150)
  P. Fluorescens Day 4, visual colony number: ++++ (more than 150)
P. Fluorescens [4]; 10 mg liquid CA in 1 L jar
  P. Fluorescens Day 1, visual colony number: + (less than 15)
  P. Fluorescens Day 2, visual colony number: +++ (50-150)
  P. Fluorescens Day 3, visual colony number: +++ (50-150)
  P. Fluorescens Day 4, visual colony number: +++ (50-150)
P. Fluorescens [4]; 30 mg liquid CA in 1 L jar
  P. Fluorescens Day 2, visual colony number: + (less than 15)
  P. Fluorescens Day 3, visual colony number: + (less than 15)
  P. Fluorescens Day 4, visual colony number: + (less than 15)
P. aphanidermatum; 2 mg liquid CA in 1 L jar
  P. aphanidermatum Day 1, colony diameter: 1.3 mm
  P. aphanidermatum Day 2, colony diameter: 2.8 mm
  P. aphanidermatum Day 3, colony diameter: 4 mm
  P. aphanidermatum Day 4, colony diameter: 5 mm
P. aphanidermatum; 5 mg liquid CA in 1 L jar
  P. aphanidermatum Day 1, colony diameter: 1 mm
  P. aphanidermatum Day 2, colony diameter: 2.1 mm
  P. aphanidermatum Day 3, colony diameter: 2.8 mm
  P. aphanidermatum Day 4, colony diameter: 3.5 mm
P. aphanidermatum; 10 mg liquid CA in 1 L jar
  P. aphanidermatum Day 1, colony diameter: 0.8 mm
  P. aphanidermatum Day 2, colony diameter: 1.6 mm
  P. aphanidermatum Day 3, colony diameter: 2.2 mm
  P. aphanidermatum Day 4, colony diameter: 2.7 mm
P. aphanidermatum; 30 mg liquid CA in 1 L jar
  P. aphanidermatum Day 1, colony diameter: 0.7 mm
  P. aphanidermatum Day 2, colony diameter: 1.4 mm
  P. aphanidermatum Day 3, colony diameter: 1.8 mm
  P. aphanidermatum Day 4, colony diameter: 2 mm
P. Fluorescens [2]; Amount 2 mg in one-liter jar
  P. Fluorescens day1, visual colony number: +++ (50-150)
  P. Fluorescens day2, visual colony number: +++ (50-150)
P. Fluorescens [2]; Amount 5 mg in one-liter jar
  P. Fluorescens day1, visual colony number: ++ (15-50)
  P. Fluorescens day2, visual colony number: ++ (15-50)
P. Fluorescens [2]; Amount 10 mg in one-liter jar
  P. Fluorescens day1, visual colony number: + (less than 15)
  P. Fluorescens day2, visual colony number: + (less than 15)
P. Fluorescens [2]; Amount 20 mg in one-liter jar
  P. Fluorescens day1, visual colony number: + (less than 15)
  P. Fluorescens day2, visual colony number: + (less than 15)
P. Fluorescens [2]
  effective concentration against P. fluorescens: 30 mg/L
Mould; Amount 2 mg in one-liter jar
  Mould day1, visual colony number: ++ (15-50)
  Mould day2, visual colony number: ++ (15-50)
  Mould day3, visual colony number: ++ (15-50)
Mould; Amount 5 mg in one-liter jar
  Mould day1, visual colony number: + (less than 15)
  Mould day2, visual colony number: + (less than 15)
  Mould day3, visual colony number: + (less than 15)
Mould; Amount 10 mg in one-liter jar
  Mould day1, visual colony number: + (less than 15)
  Mould day2, visual colony number: + (less than 15)
  Mould day3, visual colony number: + (less than 15)
Mould; Amount 20 mg in one-liter jar
  Mould day1, visual colony number: + (less than 15)
  Mould day2, visual colony number: + (less than 15)
  Mould day3, visual colony number: + (less than 15)
Mould
  concentration that inhibited the growth of mould for three days: 30 mg/L
